In experiment [1] the test system is HEK293. As to the kind of experiment: optical interference in Abeta FP readout, dose response, artefact control for IDE activator project, biochemical, fluorescence polarization (AID 588442). The following applies: Homo sapiens. Format: functional, cell-based.
Experiment [2] addresses T1, Insulin-degrading enzyme (Homo sapiens, UniProt P14735).
T1 sequence (P14735 whole entry): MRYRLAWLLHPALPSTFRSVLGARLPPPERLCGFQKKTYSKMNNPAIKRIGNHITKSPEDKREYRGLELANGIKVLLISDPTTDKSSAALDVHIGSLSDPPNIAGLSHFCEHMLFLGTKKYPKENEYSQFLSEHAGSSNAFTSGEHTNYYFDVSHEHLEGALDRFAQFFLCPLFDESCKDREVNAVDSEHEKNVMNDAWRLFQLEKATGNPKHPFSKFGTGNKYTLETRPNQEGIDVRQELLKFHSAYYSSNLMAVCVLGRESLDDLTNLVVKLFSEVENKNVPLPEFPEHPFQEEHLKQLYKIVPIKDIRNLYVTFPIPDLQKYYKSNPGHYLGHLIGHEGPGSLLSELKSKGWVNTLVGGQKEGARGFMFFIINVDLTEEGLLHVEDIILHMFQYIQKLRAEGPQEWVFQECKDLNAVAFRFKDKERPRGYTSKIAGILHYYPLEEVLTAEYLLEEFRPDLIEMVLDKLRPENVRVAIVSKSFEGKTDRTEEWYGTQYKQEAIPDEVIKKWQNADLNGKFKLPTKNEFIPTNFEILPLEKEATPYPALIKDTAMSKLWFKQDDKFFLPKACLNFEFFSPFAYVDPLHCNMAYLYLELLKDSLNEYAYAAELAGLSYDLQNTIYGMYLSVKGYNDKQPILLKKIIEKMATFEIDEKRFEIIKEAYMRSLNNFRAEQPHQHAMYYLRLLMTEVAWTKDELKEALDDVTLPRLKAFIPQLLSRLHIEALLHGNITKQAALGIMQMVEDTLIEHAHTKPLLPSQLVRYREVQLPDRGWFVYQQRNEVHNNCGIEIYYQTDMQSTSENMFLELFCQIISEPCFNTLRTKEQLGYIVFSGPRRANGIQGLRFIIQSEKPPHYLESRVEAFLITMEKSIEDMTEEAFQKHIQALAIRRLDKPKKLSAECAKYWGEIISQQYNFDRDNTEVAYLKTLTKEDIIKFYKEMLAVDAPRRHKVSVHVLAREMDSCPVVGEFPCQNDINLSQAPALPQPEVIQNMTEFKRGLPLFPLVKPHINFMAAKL
In words: activators of endogenous IDE in HEK cells, dose response, cell-based, fluorescence polarization (AID 588439). Format: functional.

In experiment [3] the target is T1, Insulin-degrading enzyme. In words: activators of recombinant IDE enzyme, dose response, counter-screen for IDE activator project, biochemical, fluorescence polarization (AID 588681). Background: A counterscreen serves to expose hits that act by an unwanted route or on another target.
The subject of experiment [4] is HEK293. As to the kind of experiment: HEK cell cytotoxicity by LDH release, dose response, cytotoxicity control for IDE activator project, fluorescence, HEK cells (AID 588440).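 Also: cytotoxicity by LDH release measuring loss of membrane integrity.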 The experiment is classed as functional, cell-based. The following applies: Homo sapiens.
Experiment [5] addresses T2, DNA dC->dU-editing enzyme APOBEC-3G (Homo sapiens, UniProt Q9HC16). As to the kind of experiment: Dose Response confirmation of small molecule APOBEC3G DNA Deaminase Inhibitors via a fluorescence-based single-stranded DNA deaminase assay. [Related pubchem assays (depositor defined):AID493012, AID493028]. Format: functional.
Experiment [6] has as its target T2, DNA dC->dU-editing enzyme APOBEC-3G. As to the kind of experiment: APOBEC3G deaminase inhibitors, SAR follow-up, biochemical, fluorescence, single-stranded DNA substrate (AID 602136). The experiment is classed as functional. Conditions: read-out: IC50_Mean.
Experiment [7] has the same target. As to the kind of experiment: SAR analysis of small molecule inhibitors of APOBEC3G DNA Deaminase via a fluorescence-based single-stranded DNA deaminase assay - Set 2. The following applies: read-out: IC50_Mean. The experiment is classed as functional.
For experiment [8], the target named is T3, DNA dC->dU-editing enzyme APOBEC-3A (Homo sapiens, UniProt P31941). As to the kind of experiment: SAR analysis of small molecule inhibitors of APOBEC3A DNA Deaminase via a fluorescence-based single-stranded DNA deaminase assay. The experiment is classed as functional. Conditions: read-out: IC50_Mean.
T3 sequence (P31941 whole entry): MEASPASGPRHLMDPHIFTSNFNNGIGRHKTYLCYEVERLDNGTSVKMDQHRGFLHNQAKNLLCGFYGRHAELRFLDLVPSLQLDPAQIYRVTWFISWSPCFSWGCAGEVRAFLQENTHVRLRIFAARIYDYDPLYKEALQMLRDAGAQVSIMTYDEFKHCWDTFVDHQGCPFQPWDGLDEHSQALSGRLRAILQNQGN
Experiment [9] concerns the target T4, Heat shock factor protein 1 (Mus musculus, UniProt P38532).
T4 sequence (P38532 whole entry): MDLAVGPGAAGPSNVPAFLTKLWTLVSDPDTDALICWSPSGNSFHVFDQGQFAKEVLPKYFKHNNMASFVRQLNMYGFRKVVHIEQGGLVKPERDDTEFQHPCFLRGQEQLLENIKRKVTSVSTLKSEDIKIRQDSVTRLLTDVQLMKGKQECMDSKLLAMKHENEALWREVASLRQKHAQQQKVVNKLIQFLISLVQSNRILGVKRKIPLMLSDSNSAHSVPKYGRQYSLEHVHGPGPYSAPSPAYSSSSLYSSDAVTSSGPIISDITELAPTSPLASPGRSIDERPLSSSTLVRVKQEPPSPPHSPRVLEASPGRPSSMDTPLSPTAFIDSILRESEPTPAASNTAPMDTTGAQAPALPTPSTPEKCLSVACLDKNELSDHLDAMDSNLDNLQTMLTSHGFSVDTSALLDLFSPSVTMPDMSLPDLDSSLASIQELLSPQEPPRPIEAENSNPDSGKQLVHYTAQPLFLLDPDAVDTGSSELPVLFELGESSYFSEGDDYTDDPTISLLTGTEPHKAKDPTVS
In words: inhibition of MG132-induced HSE-luciferase signal, confirmation, cell-based, NIH3T3, luminescence, dose retest (AID 2382).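 Also: NIH3T3 fibroblasts with HSF1-driven luciferase reporter stressed by proteasome inhibitor MG132; luminescence from HSF1-driven luciferase expression after 8 hours of MG132 stress.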 The experiment is classed as functional.

The target of experiment [10] is T3, DNA dC->dU-editing enzyme APOBEC-3A. In words: SAR analysis of small molecule inhibitors of APOBEC3A DNA Deaminase via a fluorescence-based single-stranded DNA deaminase assay - Set 2. The experiment is classed as functional. Conditions: read-out: IC50_Mean.
For experiment [11] the target is unchanged. As to the kind of experiment: APOBEC3A DNA deaminase inhibitors, dose response, biochemical (AID 504722). Format: functional.
A short description of experiment [12]: HEp-2 cell cytotoxicity, dose response, cytotoxicity control for RSV inhibitor project, HTS (AID 2410). The experiment is classed as functional. The following applies: human respiratory syncytial virus.
Experiment [13] deals with T2, DNA dC->dU-editing enzyme APOBEC-3G. The experiment is classed as functional.
In experiment [14] the target is T3, DNA dC->dU-editing enzyme APOBEC-3A. In words: Dose Response confirmation of small molecule APOBEC3A DNA Deaminase Inhibitors via a fluorescence-based single-stranded DNA deaminase assay. [Related pubchem assays (depositor defined):AID493011, AID493024]. Format: functional.
The subject of experiment [15] is H4. As to the kind of experiment: Luminescence Cell-Based Dose Response HTS to Identify Activators of 5'UTR Stem-Loop Driven Prion Protein mRNA Translation in H4 Neuroglioblastoma Cells. [Related pubchem assays: 1829 (Project Summary), 1814 (Primary HTS)]. Format: functional. Conditions: Homo sapiens.
Experiment [16] in a line: Luminescence Cell-Based Dose Response HTS to Identify Activators of Luciferase Translation or Activity in H4 […] Cells. [Related pubchem assays: 1829 (Project Summary), 1814 (Primary HTS)]. Format: functional.
The target in experiment [17] is T5, High affinity choline transporter 1 (Homo sapiens, UniProt Q9GZV3).
T5 sequence (Q9GZV3 whole entry): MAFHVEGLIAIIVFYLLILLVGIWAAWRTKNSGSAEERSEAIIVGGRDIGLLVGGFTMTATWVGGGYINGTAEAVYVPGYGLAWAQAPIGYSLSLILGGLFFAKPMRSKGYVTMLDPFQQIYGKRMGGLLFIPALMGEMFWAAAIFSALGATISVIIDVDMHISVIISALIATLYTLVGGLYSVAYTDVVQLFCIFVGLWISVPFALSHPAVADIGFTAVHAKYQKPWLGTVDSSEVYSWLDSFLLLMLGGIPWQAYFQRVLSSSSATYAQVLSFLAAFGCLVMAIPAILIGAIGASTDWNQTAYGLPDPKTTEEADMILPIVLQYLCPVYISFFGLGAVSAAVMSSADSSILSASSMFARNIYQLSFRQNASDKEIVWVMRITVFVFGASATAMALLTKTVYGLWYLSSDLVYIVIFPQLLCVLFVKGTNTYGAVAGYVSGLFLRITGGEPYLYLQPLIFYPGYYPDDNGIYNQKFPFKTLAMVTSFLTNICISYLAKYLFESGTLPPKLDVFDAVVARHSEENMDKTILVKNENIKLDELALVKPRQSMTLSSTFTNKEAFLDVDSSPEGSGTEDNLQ
In words: CHT inhibitors, dose response, cell-based, 5-point CRC, membrane potential dye (AID 504840). Format: functional.

The nature of experiment [18]: Luminescence Cell-Based Dose Confirmation HTS to Identify Activators of 5'UTR Stem-Loop Driven Alpha-Synuclein mRNA Translation in H4 Neuroglioblastoma Cells. [Related pubchem assays: 1829 (Project Summary), 1814 (Primary HTS)]. The experiment is classed as functional.
For experiment [19], the target named is T5, High affinity choline transporter 1. In words: CHT inhibitors, dose response, cell-based, 10-point CRC, membrane potential dye (AID 588401).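 Also: membrane potential dye fluorescence of choline-evoked depolarization via CHT.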 The experiment is classed as functional.
Experiment [20] deals with T6, Rac GTPase-activating protein 1 (Homo sapiens, UniProt Q9H0H5).
T6 sequence (Q9H0H5 whole entry): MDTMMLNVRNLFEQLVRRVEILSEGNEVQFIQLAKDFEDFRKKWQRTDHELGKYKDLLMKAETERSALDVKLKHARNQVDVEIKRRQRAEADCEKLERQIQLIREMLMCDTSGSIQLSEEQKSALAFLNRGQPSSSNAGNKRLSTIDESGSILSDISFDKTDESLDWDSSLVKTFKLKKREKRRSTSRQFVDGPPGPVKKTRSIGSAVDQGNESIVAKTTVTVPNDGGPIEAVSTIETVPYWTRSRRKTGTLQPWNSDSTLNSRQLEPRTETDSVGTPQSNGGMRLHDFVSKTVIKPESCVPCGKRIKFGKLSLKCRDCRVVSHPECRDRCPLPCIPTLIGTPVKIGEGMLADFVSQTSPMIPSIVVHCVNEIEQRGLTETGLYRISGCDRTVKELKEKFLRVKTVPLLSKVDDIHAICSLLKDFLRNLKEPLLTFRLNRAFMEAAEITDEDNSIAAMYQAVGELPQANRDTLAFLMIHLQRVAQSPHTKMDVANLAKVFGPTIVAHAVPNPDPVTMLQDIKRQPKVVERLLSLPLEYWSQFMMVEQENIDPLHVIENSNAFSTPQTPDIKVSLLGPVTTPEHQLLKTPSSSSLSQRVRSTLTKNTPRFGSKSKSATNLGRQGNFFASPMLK
As to the kind of experiment: MgcRacGAP GTPase-activating activity inhibitors, confirmation, biochemical, ADP Hunter fluorescence, primary and confirmatory (AID 624330). The experiment is classed as functional.

Experimental findings from ChEMBL document CHEMBL1201862, “PubChem BioAssay data set” (2004) are described below.

Values joined by “and” are separate entries in the source; they are usually repeats but may differ in a detail not shown here. Equal values may be shown once. Active and inactive are the calls of the source.

T2 sequence (Q9HC16 whole entry): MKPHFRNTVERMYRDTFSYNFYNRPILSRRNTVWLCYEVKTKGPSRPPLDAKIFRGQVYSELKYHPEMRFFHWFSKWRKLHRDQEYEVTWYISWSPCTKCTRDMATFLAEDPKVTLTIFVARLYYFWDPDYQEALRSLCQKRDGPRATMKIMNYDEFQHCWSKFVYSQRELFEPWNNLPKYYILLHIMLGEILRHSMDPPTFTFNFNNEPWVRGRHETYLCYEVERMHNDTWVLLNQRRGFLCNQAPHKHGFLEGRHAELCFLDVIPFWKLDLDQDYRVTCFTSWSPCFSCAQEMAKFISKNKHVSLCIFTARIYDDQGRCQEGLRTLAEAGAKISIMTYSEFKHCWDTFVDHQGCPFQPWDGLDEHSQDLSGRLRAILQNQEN

As to `COc1ccc(NCC(O)COc2ccc(C(C)(C)C)cc2)cc1` (stereo unspecified), the EC50 in [1], in experiment [2] and in experiment [3] was > 54.7 µM (inactive) in each case. Also, the IC50 in [4] was 49.1 µM (inactive).
Consider `Nn1c(-c2cccc(Br)c2)n[nH]c1=S`, for which the IC50 is 1.45 µM (active) in experiment [5]; 0.55 µM (active) in [6]; 539 nM (active) in [7]; > 99 µM (inactive) in [8]; > 99 µM (inactive) in experiment [10]; > 100 µM (inactive) in experiment [11]. Besides, in experiment [9], the concentration for a half-maximal effect (EC50) is 108 µM (active).
With `COc1cc(C2Nc3cccc4cccc(c34)N2)ccc1O`, the EC50 in experiment [1], in experiment [2] and in experiment [3] was > 54.7 µM (inactive) each time. The CC50 in experiment [12] was 32.1 µM (active). In experiment [4], the IC50 is > 89.3 µM (inactive).
For `CCn1ncc(-c2ccnc3cc(C(=O)O)nn23)c1C`, the IC50 was > 100 µM (inactive) in experiment [13]; > 99 µM (inactive) in [6]; 93 µM (inactive) and 69.6 µM (inactive) in experiment [7]; 10.7 µM (inactive) in [8]; 16.4 µM (inactive) and 24.7 µM (inactive) in [10]; 3.82 µM (active) in [14].
As to `O=C1NN(c2ccccc2)C(=O)/C1=C/c1coc2ccccc2c1=O`, the EC50 in experiment [15] is 13.4 µM (active); in [16], 44.7 µM (active); in experiment [18], 14.5 µM (active). Besides, the IC50 in experiment [17] was 5.3 µM (active); in experiment [19] it was 1.27 µM (active).
As for `C=CCNc1nc(SC)nc2ccsc12`, the figures for the IC50 in experiment [17] and in experiment [19] were 1.73 µM (active) and 0.891 µM (active), respectively.
Turning to `Cc1ccc(-c2csc3n[nH]c(=S)n23)cc1`, the IC50 in [5] is 1.35 µM (active); in [6], 3.48 µM (active); in experiment [20], 58.1 µM (active); in experiment [7] it was > 99000 nM (inactive); in experiment [8] it was > 99 µM (inactive); in experiment [10] it was > 99 µM (inactive). Moreover, the IC50 in experiment [11] is > 100 µM (inactive).

Usually EC50 stands for the concentration that produces a half-maximal response. By CC50 is commonly meant the concentration at which the toxic effect on the cells reaches its halfway point.
